{"source": "ChEMBL document CHEMBL1150785", "about": "(Antimicrob Agents Chemother, 2007)", "system": "Mycobacterium tuberculosis", "test": "Effect on mutation frequency of Mycobacterium tuberculosis H37Ra assessed as mutation prevention concentration", "type": "functional"}
{"smiles": "NNC(=O)c1ccncc1", "note": "[ISONIAZID]", "values": [{"measurement": "Activity", "value": 50, "unit": "mg/L"}]}
